Results taken from patent publication US20120053119A1, “THERAPEUTIC METHOD FOR INCREASING PANCREATIC BETA CELL MASS” (priority 2009, published 2012).

Experiments:
Assay type in all cases: cell-based
[1] = system: INS-1 cells; experiment: MTT assay of cell growth; conditions: serum starved, SDF-1 10 nM, 48 hr
Protocol: FIG. 6. Inhibition of apoptosis by SDF-1 in INS-1 and MIN-6 cells is reversed by knock-down of betacatenin. A. Western blot analysis of extracts from MIN6 cells that were mock treated, thapsigargin-treated (1 μM) and/or siRNA transfected (0.25 mg/ml), by using anti-serum against cleaved caspase-3 (upper panel), anti-serum against cleaved PARP (middle panel) and actin antibody (lower panel) as a loading control. B. Caspase-3 activity (fluorescence/mg proteinx105) of INS-1 or MIN6 cells mock treated, thapsigargin-treated (1 μM) and/or siRNA transfected (0.25 mg/ml). Results are presented as mean±SD for n=3 independent experiments, All values are relative to the first (leftmost) bar. Statistical significance is depicted as * (p<0.05) when compared with control values (leftmost bar) and # (<0.05) when compared with […] thapsigargin treatment. C. Representative images are shown for TUNEL staining of INS-1 cells of n=3 independent experiments. Quantification of apoptotic cells is expressed as percent apoptotic cells relative to the total cells counted (lower left panel). D. The proliferation rates of INS-1 cells after SDF-1 or Exd4 treatment are presented as relative BrdU and MTT incorporation values compared to that of control treated cells. […]
MTT Assay Growth of INS-1 cells was determined by the MTT system. […]

[2] = system: alpha-TC-1 cells; experiment: BrdU incorporation cell proliferation assay in alpha-TC-1 cells; conditions: serum starved alpha-TC-1 cells, SDF-1 10 nM, 20 hrs
Protocol: FIG. 16. BrdU incorporation cell proliferation assay. Serum starved alpha-TC-1 cells were treated with either PBS (Control) or SDF-1 (10 nM) for 20 hrs, and their proliferation rate was examined by a BrdU incorporation assay. Data represent means±S.D. of three experiments. Statistical significance is depicted as * (p<0.05) when compared with control values (left bar).

[3] = system: INS-1 cells; experiment: ATP-lite cell viability assay, glucose toxicity; conditions: 25 mM glucose, SDF-1 added day 0, 2, 4, read day 6
Protocol: FIG. 34. […] For bars 3-8, SDF-1 was added at the indicated concentrations to high glucose concentration well plates at day 0, 2, 4. Cell viability was measured at day 6. N=4.
SDF-1 was added at various concentrations (0.1 nM, 0.25 nM, […], 1 nM, 2.5 nM, and 5 nM) to high glucose concentration well plates at day 0, 2, 4. Cell viability was measured at day 6, using the ATP-lite cell viability assay (PerkinElmer, Boston, Mass.).

[4] = system: mouse islets; experiment: GLP-1 production in mouse islets ex vivo, radioimmunoassay; conditions: batches of 50 islets, medium 1 and 4 hours, lysate 4 hr; SDF-1 10 nM
Protocol: FIG. 37. Cytokines and SDF-1 stimulate GLP-1 production in mouse islets ex vivo. Batches of 50 islets were treated with control, cytokine mixture, or 10 nM SDF-1. Medium was collected in 1 hr and 4 hr. Islet lysate was collected in 4 hr. GLP-1. Immunoreactive protein was measured by radioimmunoassay.
Batches of 50 islets were treated with a control vehicle, a cytokine mixture, or 10 nM SDF-1. Medium was collected from each batch at 1 hour and 4 hours, and islet lysate was collected in 4 hr. the concentration of GLP-1 contained in each sample collected was measured by radioimmunoassay of the immunoreactive protein.

For “SDF-1: small, secreted 70 amino acid peptide chemokine, SEQ ID NO: 1, ligand of CXCR4”, the “effect on proliferation of INS-1 cells, MTT assay” value [1] was “no detectable effects”, the “proliferation of alpha cells (BrdU incorporation)” value [2] was “stimulates the proliferation” and the “protection of cell viability against glucose toxicity” value [3] was “dose-dependently protects”. For the same substance, the “production of GLP-1 by mouse islets” value [4] was “induces the production of GLP-1”.
